Target: T1, Genome polyprotein [1424-1463]/[1502-1685] (West Nile virus, UniProt P06935)
T1 construct: 1424-1463; 1502-1685
T1 sequence (P06935 whole entry) 1: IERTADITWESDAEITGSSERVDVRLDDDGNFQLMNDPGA
T1 sequence (P06935 whole entry) 2: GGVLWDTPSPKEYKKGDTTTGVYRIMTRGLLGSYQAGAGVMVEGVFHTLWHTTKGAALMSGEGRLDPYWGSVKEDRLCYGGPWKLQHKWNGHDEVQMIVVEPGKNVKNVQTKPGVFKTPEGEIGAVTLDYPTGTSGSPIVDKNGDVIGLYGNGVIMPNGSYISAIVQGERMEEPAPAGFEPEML
Assay: In Vitro Enzyme Inhibition
Details: pH 9.5; 37 °C
Method: Inhibition of WNV protease activity was measured using recombinant WNV protease, which first incubated with inhibitor in 96-well plates. Catalysis was initiated by adding the substrate. Cleavage of the pNA chromophore from substrate produced a color change monitored at 405 nm. Optical density was measured every 30 s for 10 min by a Spectromax 250 reader, and Ki values were determined by Graphpad Prism.

SMILES	IC50 [nM]	Ki [nM]
NCCCC[C@H](NC(=O)C=Cc1ccccc1)C(=O)N[C@@H](CCCCN)C(=O)N[C@H](C=O)CCCN=C(N)N [(2S)-6-amino-2-[(2S)-6-amino-2-[(2E)-3-phenylprop-2-enamido]hexanamido]-N-[(2S)-5-carbamimidamido-1-oxopentan-2-yl]hexanamide]	580	104
COc1ccc2cc([C@H](C)C(=O)N[C@@H](CCCCN)C(=O)N[C@@H](CCCCN)C(=O)N[C@H](C=O)CCCN=C(N)N)ccc2c1 [(2S)-6-amino-N-[(1S)-5-amino-1-{[(2S)-5-carbamimidamido-1-oxopentan-2-yl]carbamoyl}pentyl]-2-[(2S)-2-(6-methoxynaphthalen-2-yl)propanamido]hexanamide]	112	20

— BindingDB's records for doi:10.1021/jm800503y (University of Queensland, 2008)
